Measured values: US20080206215A1, “APPARATUS AND METHOD FOR TREATMENT OF MICROORGANISMS DURING PROPAGATION, CONDITIONING AND FERMENTATION” (priority 2006, published 2008)

Legend:
[1] = system: fermentation; details: background statement; cited from earlier work
[2] = system: Weisella confusa; details: background statement; cited from earlier work
[3] = system: glucoamylase
[4] = system: yeast; experiment: ethanol production from corn mash treated with ClO2 prior to fermentation; type: cell-based; details: ClO2 dosages of between about 10 and about 75 mg/L applied to the mash prior to fermentation; FIG. 3
Source text: FIG. 3 is a graph of time (in hours) versus ethanol produced (in grams) for mash treated with various concentrations of ClO2 prior to the fermentation process.
The ClO2 can also be added to the mash prior to the fermentation process, for example before the SSF stage. FIG. 3 is a graph of time (in hours) versus ethanol produced (in grams) for mash treated with various concentrations of ClO2 prior to the fermentation process.

[5] = system: yeast; experiment: ethanol production in fermentation batches treated with ClO2 during fermentation; type: cell-based; details: ClO2 dosages of less than about 15 mg/L applied directly to the fermentation mixture; FIG. 2
Source text: FIG. 2 is a graph of time (in hours) versus ethanol produced (in grams) for fermentation batches treated with various concentrations of ClO2 during fermentation.
As mentioned above, ClO2 can be added directly into the fermentation mixture. This can be done by adding the ClO2 in conjunction with the yeast and glucoamylase, for example during the SSF stage. FIG. 2 is a graph of time (in hours) versus ethanol produced (in grams) for fermentation batches treated with various concentrations of ClO2 during fermentation.

[6] = system: bacteria; experiment: amount of bacteria (CFU/g) in fermenting mash treated with antimicrobial agents; type: cell-based; details: FIG. 5
Source text: FIG. 5 is a bar graph showing the amount of bacteria present (in CFU/g) in fermenting mash treated with different antimicrobial agents (in ppm) at different times (in hours).
FIG. 5 is a bar graph showing the amount of bacteria present (in CFU/g) in fermenting mash treated with different levels of an antimicrobial agent (in ppm), either ClO2 or antibiotic, at different times (in hours).

[7] = system: yeast; experiment: yeast viability in corn mash treated with ClO2 during propagation/conditioning; type: cell-based; details: yeast treated with ClO2 during propagation/conditioning phase; FIG. 4
Source text: FIG. 4 is a bar graph of viability (% of yeast cells living out of the original number) over time (in hours) in the corn mash treated with 0, 10 and 50 ppm of ClO2.
Chlorine dioxide can also be added during propagation and/or conditioning. For example ClO2 can be added to the yeast slurry before SSF replacing the acid washing step. FIG. 4 is a bar graph of viability (% of yeast cells living out of the original number) over time (in hours) in the corn mash treated with 0, 10 and 500 ppm of ClO2. […] The yeast can tolerate a ClO2 environment and remain viable at high concentrations of ClO2. Competing bacteria, wild yeast, molds, etc. will succumb to the ClO2 leaving only highly viable yeast for fermentation without the additional stress of traditional acid washing. Chlorine dioxide dosages of less than about 50 mg/L may be applied directly to the yeast during propagation.

Molecule: Virginiamycin
- concentration that suppresses fermentation [1]: over 2 mg/L
- concentration required to inhibit growth [2]: over 25 mg/L

Molecule: [O-][Cl+]O [chlorite ion]
- concentration that inhibits the glucoamylase enzyme ([3]; 5% maltose solution, FIG. 6): ≥ 14 mg/L

Molecule: [O][Cl+][O-] [ClO2, Chlorine dioxide]
- ethanol production versus control [4]: greater ethanol production than the control containing no ClO2
- ethanol production versus control [5]: greater ethanol production than the control containing no ClO2
- reaction with glucoamylase [3]: does not exhibit a significant reaction with glucoamylase
- microbial reduction versus untreated mash ([6]; corn mash treated with ClO2, after 72 hours): greater microbial reduction than untreated mash
- microbial reduction versus antibiotic-treated mash ([6]; corn mash treated with greater than 10 ppm of ClO2, after 72 hours): greater microbial reduction than the corn mash treated with antibiotic
- greater yeast viability than untreated yeast [7]: up to 80%
